Experimental data published in US7790435B2, “Chemical induction in quiescence in bacteria” (priority 2005, dated 2010).
Entries after “also recorded” stand apart in the source; their conditions may differ. Read-outs that look alike come from different tables or passages of the source.

Tests used:
[1] = test system: E. coli W3110hns-205::Tn10; assay type: cell-based; conditions: 3 mM, L-broth containing tetracycline, 37° C.; for Growth inhibition: semi-quantitative estimate
Procedure: A single E. coli colony (W3110 hns-205::Tn10) was picked from an L-agar plate containing tetracycline (10 μg ml^−1) and inoculated into 10 ml L-broth. This was grown overnight in a shaking incubator at 37° C. 200 μl of overnight culture was inoculated into 20 ml L-broth in a 50 ml conical flask, and grown at 37° C. in a shaking water bath to an optical density at 600 nm (OD600) of between 0.2 and 0.3. Two ml of this culture was inoculated into 18 ml pre-warmed L-broth containing tetracycline (10 μg ml^−1) to which had been added an appropriate volume of indole, isoquinoline, indoline, tryptamine, quinoline, or pyrrole stock solution (0.5 M in ethanol), IAA stock solution (0.5 M in water), 3-β-indoleacrylic acid stock solution (0.125 M in ethanol) or 1-acetylindoline stock solution (0.25 M in ethanol) to give a final concentration of 3 mM.

[2] = test system: E. coli BW25113; assay: Growth inhibition of E. coli BW25113 by indole in L-broth (FIG. 1); assay type: cell-based; conditions: 37° C.
Procedure: For the experimentation for which results are shown in FIG. 1, E. coli BW25113 (Datsenko & Wanner, 2000)was grown overnight at 37° C. in L-broth (Kennedy, 1971). The stationary phase culture was used to inoculate a series of L-broth cultures supplemented with indole (0-6 mM) and their growth was monitored over the next 7 hours.

[3] = test system: E. coli W3110; assay: Growth of W3110 in tryptone water broth supplemented with indole (FIG. 2a); assay type: cell-based; conditions: 37° C.
Procedure: (§1) For the experimentation for which results are shown in FIG. 2a and FIG. 2b, W3110 and W3110hns-205 (Mukherjee et al., 2004) were cultured at 37° C. in tryptone water broth (Oxoid) supplemented with 0, 2 or 4 mM indole.

[4] = test system: W3110 hns205; assay: Indole-induced quiescence of W3110 hns205 in broth culture (FIG. 2a, 2b, 3); assay type: cell-based, E. coli
Procedure: as §1
For the experimentation for which results are shown in FIG. 3a and FIG. 3b, W3110hns205 was cultured in L-broth at 30° C. (FIG. 3a) or 42° C. (FIG. 3b). At t=0 each culture was split into two and indole (final concentration 2 mM) was added to one part. […] The control cultures (no indole) continued to grow until they reached stationary phase.

[5] = test system: W3110hns205 containing plasmid pCMT2bompAhGM-CSF; assay: hGM-CSF expression in indole-treated cultures, ELISA of total cell lysates (FIG. 4); assay type: cell-based, E. coli; conditions: for hGM-CSF production: 42° C., L-broth
Procedure: For the experimentation for which results are shown in FIG. 4, W3110hns205 containing plasmid pCMT2bompAhGM-CSF^(see below) (which contains the coding sequence for the cytokine hGM-CSF fused to an ompA leader sequence, transcribed from promoter lambda PL under the control of the temperature sensitive repressor cI857) was grown in L-broth at 30° C. to an OD600 of 0.36, at which point the culture was transferred to 42° C. to induce cytokine expression. Simultaneously indole was added to the growth medium at final concentrations of 0, 2 or 4 mM (FIG. 4a).
Cytokine production was quantified by ELISA of total cell lysates and assay data were normalised for culture density (FIG. 4b). […] In the control culture (no indole), hGM-CSF increased in the first hour before declining.

[6] = test system: W3110hns-205 containing pCMT2blacZ; assay: Growth and beta-galactosidase (LacZ) expression in indole-treated culture (FIG. 5); assay type: cell-based, E. coli; conditions: 2 mM indole, 42° C.
Procedure: For the experimentation for which results are shown in FIGS. 5a and 5b, W3110hns-205 containing pCMT2blacZ (a plasmid which contains the coding sequence for beta-galactosidase, transcribed from promoter lambda PL under the control of the temperature sensitive repressor cI857) was grown in L-broth at 30° C. to OD600=0.15. The culture was then divided into two and the temperature was increased to 42° C. to induce lacZ expression. Indole (2 mM) was added immediately to one subculture to induce a quiescent state, while the other was an indole-free control. Beta-galactosidase activities were measured for 24 hours after the temperature shift.

[7] = test system: W3110 rnc-14; assay: Indole-induced quiescence in an rnc mutant (FIG. 6); assay type: cell-based, E. coli; conditions: 2 mM indole
Procedure: For the experimentation for which results are shown in FIG. 6, a culture of W3110 rnc-14 was grown in L-broth at 37° C. to a density of OD600=0.15. The culture was divided into two (t=0) and indole (2 mM) was added to one of the sub-cultures. Growth of the cultures was measured over the following 27 hours. While the control culture eventually reached stationary phase at OD600=2, the indole-treated culture entered a non-growing state after approximately 7 hours and remained at a density of OD600=1 (approx.).

[8] = test system: W3110hns-205 pcIts857; assay: Comparison of indole- and Rcd-induced quiescence (FIG. 7); assay type: cell-based, E. coli; conditions: 42° C., L-broth
Procedure: The experiment for which results are shown in FIG. 7 compared the growth kinetics of Rcd-induced and indole-induced quiescent cultures. Cultures of W3110hns-205 pcIts^857 (Remaut et al., 1983) transformed with either pRcd1 (Rcd expression plasmid; Mukherjee et al., 2004)) or pUCdeltalacZ (control plasmid; no Rcd) were grown in L-broth at 30° C. for 90 minutes, then 2×5 ml aliquots of each culture were transferred to 50 ml conical flasks, pre-warmed to 42° C. (t=0). The temperature shift induces Rcd expression in cultures containing plasmid pRcdl but not in cultures containing pUCdeltalacZ. For each pair of cultures, indole (final concentration 2 mM) was added to one of them. IPTG was added to all cultures so that the induction of chromosomal LacZ could be monitored. Culture density was monitored over the following 24 h.

[9] = test system: E. coli W3110hns-205::Tn10; assay type: cell-based; conditions: L-broth containing tetracycline
[10] = test system: E. coli gene mdtE; conditions: 2 mM indole; cited from earlier work

## c1ccc2ncccc2c1 [quinoline]
[1]
  effect on growth (in words): significant inhibitory effects
[1]; listed as Quinoline
  effect on growth (in words): some inhibition of growth but their effect was less severe than indole; also recorded: substantial growth inhibition, but less severe than that shown by indole

## O=C(O)Cc1c[nH]c2ccccc12 [IAA, indole-3-acetic acid]
[1]
  effect on growth (in words): slight stimulation of growth
  Growth inhibition: −^b
[1]; listed as indole acetic acid
  effect on growth (in words): not observed to have a significant effect on growth

## c1ccc2cnccc2c1 [isoquinoline]
[1]
  effect on growth (in words): very similar effects to indole; also recorded: significant inhibitory effects
  Growth inhibition: +++
[1]; listed as Isoquinoline
  effect on growth (in words): very similar effects to indole

## CC(=O)N1CCc2ccccc21 [1-acetylindoline]
[1]
  effect on growth (in words): substantial growth inhibition, but less severe than that shown by indole; also recorded: significant inhibitory effects

## O=C(O)/C=C/c1c[nH]c2ccccc12 [3-β-indoleacrylic acid]
[1]
  effect on growth (in words): very similar effects to indole; also recorded: significant inhibitory effects
  Growth inhibition: +++

## pyrrole
[1]
  effect on growth (in words): no observed inhibitory effect
  Growth inhibition: −
[1]; listed as Pyrrole
  effect on growth (in words): not observed to have a significant effect on growth

## NCCc1c[nH]c2ccccc12 [tryptamine]
[1]
  effect on growth (in words): some inhibition of growth but their effect was less severe than indole; also recorded: slight growth inhibition

## c1ccc2c(c1)CCN2 [indoline]
[1]
  effect on growth (in words): some inhibition of growth but their effect was less severe than indole
[1]; listed as Indoline
  effect on growth (in words): slight growth inhibition

## c1ccc2[nH]ccc2c1 [indole]
[2]; 1 mM indole
  effect on growth: growth inhibition was not evident; also recorded: no effect upon growth
[2]; 2 or 3 mM indole
  effect on growth: partial inhibition; also recorded: slowing of the growth rate
[2]; 4, 5 or 6 mM indole
  effect on growth: Growth inhibition was severe; also recorded: almost complete inhibition of growth
[3]; 2 mM indole
  effect on growth: partial growth inhibition; also recorded: reduced growth rate
[3]; 4 mM indole
  effect on growth: inhibited growth severely; also recorded: completely inhibited growth
[4]; 2 mM indole, L-broth
  effect on growth: enter a quiescent state
[4]; 2 mM indole, L-broth, 30° C. or 42° C.
  induction of quiescence: induce quiescence; also recorded: entered the quiescent state with similar kinetics at both temperatures
[4]; 2 mM indole, at 30° C., 37° C. and 42° C.
  persistence of the quiescent state: at least 24 hours
[4]; 4 mM indole, L-broth
  effect on growth: complete growth inhibition
[4]; 4 mM indole, tryptone water broth, 37° C.
  effect on growth: almost complete inhibition of growth
[4]; shake-flask culture
  appropriate final concentration of indole to induce quiescence: 2 mM
[5]; 2 mM indole, quiescent culture
  hGM-CSF production: increased rapidly for the first hour
[5]; 2 mM indole, normalised for culture density
  peak hGM-CSF concentration of control culture (no indole) relative to quiescent culture: less than half
[5]; 4 mM indole
  hGM-CSF production: produced no hGM-CSF
[6]; L-broth
  final OD600: 0.78
[6]; after 24 h
  beta-galactosidase activity: 27,000 MU
[7]
  induction of quiescence: induce quiescence; also recorded: enters quiescence
[7]; L-broth, 37° C.
  culture density OD600 in non-growing state: ~1
  time to enter a non-growing state: approximately 7 hours
[8]; 2 mM indole plus Rcd expression (pRcd1)
  induction of quiescence: entered a quiescent state but more rapidly and reached a lower final density
[8]; 2 mM indole, no Rcd
  induction of quiescence: enter a quiescent state with similar growth kinetics; also recorded: entered a quiescent state
[1]
  Growth inhibition: +++
[9]
  minimum concentration which causes immediate growth inhibition: 3 mM
[10]
  elevation of expression: 22 fold
